Measured values published in patent publication US10844077B2, “Thiazolyl-containing compounds for treating proliferative diseases” (Dana-Farber Cancer Institute, Inc., priority 2014, dated 2020).
Read-outs that look alike come from different tables or passages of the source.

Columns and labels:
Format in all cases: cell-based
[1] = biological target: kinases in BCWM.1 cells (Homo sapiens, UniProt P48736); conditions: PIK3CG; ATP; 1 μM, 90 min; GF
Procedure: (§1) The cells were harvested and lysed. […] Bound kinases were identified and quantitated by ACTIVX as described in Patricelli et al., Biochemistry, 2007, 46(2): 350-358. The compounds were tested in duplicates against duplicate or quadruplicate control samples.

[2] = biological target: kinases in BCWM.1 cells (Homo sapiens, UniProt Q8TDX7); conditions: NEK7; Lys1; 1 μM, 90 min; GF
Procedure: as §1

[3] = biological target: kinases in BCWM.1 cells (Homo sapiens, UniProt Q15349); conditions: RSK3 domain1; Lys2; 1 μM, 90 min; GF
Procedure: as §1

[4] = biological target: kinases in BCWM.1 cells (Homo sapiens, UniProt P43405); conditions: SYK; Activation Loop; 1 μM, 90 min; GF
Procedure: as §1

[5] = biological target: kinases in BCWM.1 cells (Homo sapiens, UniProt P15735); conditions: PHKg2; Lys1; 1 μM, 90 min; GF
Procedure: as §1

[6] = biological target: kinases in BCWM.1 cells (Homo sapiens, UniProt Q9NZJ5); conditions: PEK; Lys2; 1 μM, 90 min; GF
Procedure: as §1

[7] = biological target: kinases in BCWM.1 cells (Homo sapiens, UniProt Q16816); conditions: PHKg1; Protein Kinase Domain; 1 μM, 90 min; GF
Procedure: as §1

[8] = biological target: kinases in BCWM.1 cells (Homo sapiens, UniProt Q9UBS0); conditions: p70S6Kb; Lys2; 1 μM, 90 min; GF
Procedure: as §1

[9] = biological target: kinases in BCWM.1 cells (Homo sapiens, UniProt O95747); conditions: OSR1; Lys2; 1 μM, 90 min; GF
Procedure: as §1

[10] = biological target: kinases in BCWM.1 cells (Homo sapiens, UniProt P23443); conditions: p70S6K; Lys2; 1 μM, 90 min; GF
Procedure: as §1

[11] = biological target: kinases in BCWM.1 cells (Homo sapiens, UniProt Q9UHD2); conditions: TBK1; Lys1; 1 μM, 90 min; GF
Procedure: as §1

[12] = biological target: kinases in BCWM.1 cells (Homo sapiens, UniProt Q9Y2H1); conditions: NDR2; Lys2; 1 μM, 90 min; GF
Procedure: as §1

[13] = biological target: kinases in BCWM.1 cells (Homo sapiens, UniProt Q96Q15); conditions: SMG1; ATP; 1 μM, 90 min; GF
Procedure: as §1

[14] = biological target: kinases in BCWM.1 cells (Homo sapiens, UniProt Q96S44); conditions: PRPK; ATP Loop; 1 μM, 90 min; GF
Procedure: as §1

[15] = biological target: kinases in BCWM.1 cells (Homo sapiens, UniProt Q9UL54); conditions: TAO2; Lys2; 1 μM, 90 min; GF
Procedure: as §1

[16] = biological target: kinases in BCWM.1 cells (Homo sapiens, UniProt Q9UKE5); conditions: ZC2/TNIK; Lys1; 1 μM, 90 min; GF
Procedure: as §1

[17] = biological target: kinases in BCWM.1 cells (Homo sapiens, UniProt Q96BR1); conditions: SGK3; Lys1; 1 μM, 90 min; GF
Procedure: as §1

[18] = biological target: kinases in BCWM.1 cells (Homo sapiens, UniProt Q8NEB9); conditions: PIK3C3; ATP; 1 μM, 90 min; GF
Procedure: as §1

[19] = biological target: kinases in BCWM.1 cells (Homo sapiens, UniProt Q9UKI8); conditions: TLK1; Lys2; 1 μM, 90 min; GF
Procedure: as §1

[20] = biological target: kinases in BCWM.1 cells (Homo sapiens, UniProt Q96S38); conditions: RSKL1; ATP; 1 μM, 90 min; GF
Procedure: as §1

[21] = biological target: kinases in BCWM.1 cells (Homo sapiens, UniProt Q9BZL6); conditions: PKD2; Lys1; 1 μM, 90 min; GF
Procedure: as §1

[22] = biological target: kinases in BCWM.1 cells (Homo sapiens, UniProt Q16512); conditions: PKN1; Lys1; 1 μM, 90 min; GF
Procedure: as §1

[23] = biological target: kinases in BCWM.1 cells (Homo sapiens, UniProt Q8TD19); conditions: NEK9; Lys2; 1 μM, 90 min; GF
Procedure: as §1

[24] = biological target: kinases in BCWM.1 cells (Homo sapiens, UniProt P04049); conditions: RAF1; Lys2; 1 μM, 90 min; GF
Procedure: as §1

[25] = biological target: kinases in BCWM.1 cells (Homo sapiens, UniProt Q86UE8); conditions: TLK2; Lys2; 1 μM, 90 min; GF
Procedure: as §1

[26] = biological target: kinases in BCWM.1 cells (Homo sapiens, UniProt Q15418); conditions: Lys2, 1 μM, 90 min, GF
Procedure: as §1

[27] = biological target: kinases in BCWM.1 cells (Homo sapiens, UniProt O75385); conditions: ULK1; Lys2; 1 μM, 90 min; GF
Procedure: as §1

[28] = biological target: kinases in BCWM.1 cells (Homo sapiens, UniProt P30291); conditions: Wee1; Lys2; 1 μM, 90 min; GF
Procedure: as §1

[29] = biological target: kinases in BCWM.1 cells (Homo sapiens, UniProt Q58A45); conditions: PAN3; Protein Kinase Domain; 1 μM, 90 min; GF
Procedure: as §1

kinases in BCWM.1 cells (Homo sapiens, UniProt O95747), sequence (O95747 2-527 limits assumed): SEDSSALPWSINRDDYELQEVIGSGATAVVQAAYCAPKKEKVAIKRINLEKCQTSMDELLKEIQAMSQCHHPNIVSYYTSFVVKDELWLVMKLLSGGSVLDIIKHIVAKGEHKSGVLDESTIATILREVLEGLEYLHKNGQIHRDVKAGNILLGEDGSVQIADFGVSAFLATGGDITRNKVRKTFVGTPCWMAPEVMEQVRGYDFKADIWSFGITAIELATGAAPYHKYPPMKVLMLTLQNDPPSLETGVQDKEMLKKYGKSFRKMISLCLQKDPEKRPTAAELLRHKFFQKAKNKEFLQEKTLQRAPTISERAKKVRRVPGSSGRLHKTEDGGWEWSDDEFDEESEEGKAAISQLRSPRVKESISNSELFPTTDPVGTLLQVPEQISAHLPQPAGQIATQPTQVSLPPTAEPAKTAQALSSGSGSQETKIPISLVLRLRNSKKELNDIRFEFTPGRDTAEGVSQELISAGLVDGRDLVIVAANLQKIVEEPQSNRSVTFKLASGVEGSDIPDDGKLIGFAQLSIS
kinases in BCWM.1 cells (Homo sapiens, UniProt Q9Y2H1), sequence (Q9Y2H1 2-464 limits assumed): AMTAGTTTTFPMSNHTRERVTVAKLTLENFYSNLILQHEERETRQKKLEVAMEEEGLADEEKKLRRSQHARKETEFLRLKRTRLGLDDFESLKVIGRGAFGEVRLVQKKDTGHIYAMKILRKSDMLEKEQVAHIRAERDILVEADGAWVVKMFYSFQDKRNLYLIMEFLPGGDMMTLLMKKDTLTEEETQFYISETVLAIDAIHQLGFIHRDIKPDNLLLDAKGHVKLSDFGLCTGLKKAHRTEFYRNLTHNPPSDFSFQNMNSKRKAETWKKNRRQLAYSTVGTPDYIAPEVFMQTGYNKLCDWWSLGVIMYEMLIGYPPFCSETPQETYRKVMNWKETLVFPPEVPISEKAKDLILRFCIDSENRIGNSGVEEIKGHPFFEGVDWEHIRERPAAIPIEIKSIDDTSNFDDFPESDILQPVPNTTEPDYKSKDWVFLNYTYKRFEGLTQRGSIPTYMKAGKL
kinases in BCWM.1 cells (Homo sapiens, UniProt Q8TD19), sequence (Q8TD19 2-979 limits assumed): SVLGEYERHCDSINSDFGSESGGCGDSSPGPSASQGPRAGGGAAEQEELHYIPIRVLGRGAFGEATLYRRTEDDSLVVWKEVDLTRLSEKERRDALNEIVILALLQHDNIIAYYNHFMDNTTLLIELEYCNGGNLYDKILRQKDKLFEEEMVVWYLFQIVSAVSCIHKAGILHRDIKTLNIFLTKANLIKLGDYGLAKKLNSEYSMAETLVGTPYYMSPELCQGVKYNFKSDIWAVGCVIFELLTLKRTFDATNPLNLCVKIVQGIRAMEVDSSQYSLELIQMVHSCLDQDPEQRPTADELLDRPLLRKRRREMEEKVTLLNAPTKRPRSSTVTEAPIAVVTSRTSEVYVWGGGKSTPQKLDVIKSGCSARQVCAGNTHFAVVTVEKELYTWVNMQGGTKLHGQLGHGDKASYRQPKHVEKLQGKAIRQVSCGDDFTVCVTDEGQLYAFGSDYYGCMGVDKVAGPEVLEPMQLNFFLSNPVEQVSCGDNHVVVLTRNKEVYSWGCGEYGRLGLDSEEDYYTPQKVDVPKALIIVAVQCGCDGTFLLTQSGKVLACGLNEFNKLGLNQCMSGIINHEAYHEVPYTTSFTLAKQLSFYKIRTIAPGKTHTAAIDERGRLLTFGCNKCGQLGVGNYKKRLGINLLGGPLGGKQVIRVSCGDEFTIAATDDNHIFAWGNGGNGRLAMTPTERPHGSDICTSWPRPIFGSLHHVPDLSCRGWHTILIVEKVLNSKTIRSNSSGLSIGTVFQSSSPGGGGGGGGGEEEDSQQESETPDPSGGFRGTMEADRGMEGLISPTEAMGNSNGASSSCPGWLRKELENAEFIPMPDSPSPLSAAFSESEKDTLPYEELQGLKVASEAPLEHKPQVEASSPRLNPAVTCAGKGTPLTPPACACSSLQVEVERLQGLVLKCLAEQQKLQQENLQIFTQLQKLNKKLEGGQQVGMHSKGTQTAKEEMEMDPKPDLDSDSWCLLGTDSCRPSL
kinases in BCWM.1 cells (Homo sapiens, UniProt Q16512), sequence (Q16512 2-942 limits assumed): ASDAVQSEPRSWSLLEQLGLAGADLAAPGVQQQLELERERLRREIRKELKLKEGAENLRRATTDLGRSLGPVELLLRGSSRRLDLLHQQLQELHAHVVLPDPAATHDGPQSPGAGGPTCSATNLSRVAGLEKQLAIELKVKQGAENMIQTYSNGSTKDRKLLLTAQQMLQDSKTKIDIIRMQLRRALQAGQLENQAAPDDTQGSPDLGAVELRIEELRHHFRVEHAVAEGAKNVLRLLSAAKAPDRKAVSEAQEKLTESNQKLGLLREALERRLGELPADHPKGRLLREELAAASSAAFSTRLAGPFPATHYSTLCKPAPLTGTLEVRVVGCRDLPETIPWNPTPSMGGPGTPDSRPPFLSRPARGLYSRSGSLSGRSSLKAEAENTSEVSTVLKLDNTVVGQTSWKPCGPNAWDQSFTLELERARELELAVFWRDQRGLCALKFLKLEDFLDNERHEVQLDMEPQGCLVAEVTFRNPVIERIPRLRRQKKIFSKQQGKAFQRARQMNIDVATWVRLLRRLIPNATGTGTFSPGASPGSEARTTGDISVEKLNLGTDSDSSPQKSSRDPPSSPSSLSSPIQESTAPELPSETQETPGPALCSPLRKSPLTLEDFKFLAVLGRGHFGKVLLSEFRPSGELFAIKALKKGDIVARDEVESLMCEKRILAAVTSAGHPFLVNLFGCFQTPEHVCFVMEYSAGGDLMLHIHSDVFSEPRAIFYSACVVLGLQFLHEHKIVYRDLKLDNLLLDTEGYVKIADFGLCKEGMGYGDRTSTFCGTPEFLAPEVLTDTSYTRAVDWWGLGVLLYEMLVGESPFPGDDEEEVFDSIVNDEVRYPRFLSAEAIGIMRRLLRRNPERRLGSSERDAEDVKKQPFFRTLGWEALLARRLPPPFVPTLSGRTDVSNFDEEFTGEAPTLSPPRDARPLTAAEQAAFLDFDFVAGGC
kinases in BCWM.1 cells (Homo sapiens, UniProt Q9NZJ5), sequence (Q9NZJ5 30-1116 limits assumed): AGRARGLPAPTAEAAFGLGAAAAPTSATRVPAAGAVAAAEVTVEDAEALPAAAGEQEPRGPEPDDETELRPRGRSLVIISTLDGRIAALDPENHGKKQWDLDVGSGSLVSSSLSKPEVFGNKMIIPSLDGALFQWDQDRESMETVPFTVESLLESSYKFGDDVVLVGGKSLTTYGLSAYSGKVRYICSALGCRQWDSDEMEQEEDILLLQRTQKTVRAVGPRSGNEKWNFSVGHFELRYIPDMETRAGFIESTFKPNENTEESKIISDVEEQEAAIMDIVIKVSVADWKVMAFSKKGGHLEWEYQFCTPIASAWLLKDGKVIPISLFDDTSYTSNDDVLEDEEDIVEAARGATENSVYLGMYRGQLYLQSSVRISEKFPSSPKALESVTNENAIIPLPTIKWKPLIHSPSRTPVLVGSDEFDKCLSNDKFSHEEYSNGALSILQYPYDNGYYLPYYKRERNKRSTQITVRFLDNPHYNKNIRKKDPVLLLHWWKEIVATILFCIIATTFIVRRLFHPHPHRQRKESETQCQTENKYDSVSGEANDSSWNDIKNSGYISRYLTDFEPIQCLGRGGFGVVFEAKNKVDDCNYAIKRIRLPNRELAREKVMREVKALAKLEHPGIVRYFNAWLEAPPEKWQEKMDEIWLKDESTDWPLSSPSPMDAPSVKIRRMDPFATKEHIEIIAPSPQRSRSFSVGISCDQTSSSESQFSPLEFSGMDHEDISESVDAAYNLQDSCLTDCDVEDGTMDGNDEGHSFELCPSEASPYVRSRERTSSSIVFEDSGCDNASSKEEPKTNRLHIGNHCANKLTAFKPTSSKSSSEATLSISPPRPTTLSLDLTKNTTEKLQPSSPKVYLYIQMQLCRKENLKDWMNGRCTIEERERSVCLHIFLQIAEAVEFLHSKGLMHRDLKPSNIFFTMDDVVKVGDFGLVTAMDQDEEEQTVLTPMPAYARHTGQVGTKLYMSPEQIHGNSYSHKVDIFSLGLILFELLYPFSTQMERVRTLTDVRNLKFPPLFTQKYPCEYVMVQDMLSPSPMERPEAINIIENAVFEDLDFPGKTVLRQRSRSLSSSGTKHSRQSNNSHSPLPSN

| SMILES | % change of MS signal compared to control sample [1] [%] | % change of MS signal compared to control sample [2] [%] | % change of MS signal compared to control sample [3] [%] | % change of MS signal compared to control sample [4] [%] | % change of MS signal compared to control sample [5] [%] | % change of MS signal compared to control sample [6] [%] | % change of MS signal compared to control sample [7] [%] | % change of MS signal compared to control sample [8] [%] | % change of MS signal compared to control sample [9] [%] | % change of MS signal compared to control sample [10] [%] | % change of MS signal compared to control sample [11] [%] | % change of MS signal compared to control sample [12] [%] | % change of MS signal compared to control sample [13] [%] | % change of MS signal compared to control sample [14] [%] | % change of MS signal compared to control sample [15] [%] | % change of MS signal compared to control sample [16] [%] | % change of MS signal compared to control sample [17] [%] | % change of MS signal compared to control sample [18] [%] | % change of MS signal compared to control sample [19] [%] | % change of MS signal compared to control sample [20] [%] | further results |
| --- | --- | --- | --- | --- | --- | --- | --- | --- | --- | --- | --- | --- | --- | --- | --- | --- | --- | --- | --- | --- | --- |
| C=CC(=O)N1CC[C@H](Nc2nccc(Nc3ncc(C(=O)Nc4c(C)cccc4C)s3)n2)C1 [Example I-3] | −3.4 | −14.7 | −19 | −1.1 | 22.3 | 6.4 | −38.8 | 6.8 | 4 | −51.5 | −1.6 | −9.6 | −36.7 | 17.3 | 8 | 32.9 | −18.5 | −0.8 | −6.9 | −25.8 | % change of MS signal compared to control sample [21]: −1.4%; % change of MS signal compared to control sample [22]: −29.4%; % change of MS signal compared to control sample [23]: −9.9%; % change of MS signal compared to control sample [24]: 9.9%; % change of MS signal compared to control sample [25]: 4.7%; % change of MS signal compared to control sample ([26]; RSK1 domain1): −16.9%; % change of MS signal compared to control sample ([26]; RSK1 domain2): −20.8%; % change of MS signal compared to control sample [27]: −8.2%; % change of MS signal compared to control sample [28]: −6.5%; % change of MS signal compared to control sample [29]: 2.5% |
| CCC(=O)N1CC[C@H](Nc2nccc(Nc3ncc(C(=O)Nc4c(C)cccc4C)s3)n2)C1 [Example I-9] | −9.6 | 8 | −4.1 | −6.1 | 5.3 | 15.4 | −26.2 | 3.1 | 13.9 | −8.6 | 10.8 | 2.9 | −1 | −1.2 | 11.5 | 11.4 | −1.1 | −9.4 | −2.3 | 1.8 | % change of MS signal compared to control sample [21]: −4.2%; % change of MS signal compared to control sample [22]: −0.9%; % change of MS signal compared to control sample [23]: −12.6%; % change of MS signal compared to control sample [24]: −9.2%; % change of MS signal compared to control sample [25]: −1.9%; % change of MS signal compared to control sample ([26]; RSK1 domain1): −5.1%; % change of MS signal compared to control sample ([26]; RSK1 domain2): −4.1%; % change of MS signal compared to control sample [27]: −1.7%; % change of MS signal compared to control sample [28]: 8.6%; % change of MS signal compared to control sample [29]: 4% |
